This note sets out measurements from patent publication US20230271949A1, “GLP-1R MODULATING COMPOUNDS” (ASCLETIS BIOSCIENCE CO., LTD., priority 2022, published 2023).

GLP-1R, sequence (P43220 24-463): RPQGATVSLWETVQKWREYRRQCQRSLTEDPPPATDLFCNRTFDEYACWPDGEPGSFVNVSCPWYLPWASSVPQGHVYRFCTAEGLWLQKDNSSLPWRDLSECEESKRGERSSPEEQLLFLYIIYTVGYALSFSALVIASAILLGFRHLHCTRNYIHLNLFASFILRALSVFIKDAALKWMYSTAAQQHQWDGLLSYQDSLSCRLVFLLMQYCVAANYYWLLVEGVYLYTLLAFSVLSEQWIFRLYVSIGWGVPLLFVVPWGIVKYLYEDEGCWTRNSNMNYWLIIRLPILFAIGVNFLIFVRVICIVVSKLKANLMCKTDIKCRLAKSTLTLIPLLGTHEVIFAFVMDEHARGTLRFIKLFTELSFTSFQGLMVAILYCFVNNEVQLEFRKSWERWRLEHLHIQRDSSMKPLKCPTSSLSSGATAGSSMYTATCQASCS

The assay concerns the target GLP-1R (Homo sapiens, UniProt P43220). The experiment in a line: GLP-1R agonist cAMP stimulation assay (HTRF cAMP). In kind it is cell-based. The conditions noted are these: HEK293 cell line expressing GLP-1 target; HTRF cAMP agonist mode, 30 min at RT. A digest of the protocol: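 GLP-1R-expressing cells were stimulated with 10-point, 3-fold compound dilutions for 30 min at RT; HTRF cAMP detection reagents were then added for 60 min and the 665/615 ratio read. Ratios were converted to cAMP via a standard curve and % activity scaled between DMSO and top-concentration GLP-1(7-37) reference wells.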
For orientation: In TR-FRET formats the signal depends on donor and acceptor labels being close together.
Take `COCCn1c(CN2CCC(c3cccc(OCc4ccc(Cl)cc4F)n3)CC2)nc2cc(C(=O)NCCCc3ccc(OC)cc3)ccc21` [Compound 20]: the EC50 (in general, the concentration at which the effect is half-maximal) turned out to be 3240 nM.

Regarding `COCCn1c(CN2CCC(c3cccc(OCc4ccc(Cl)cc4F)n3)CC2)nc2cc(C(=O)N[C@@H](C)c3ccc(O)cc3)ccc21` [Compound 40], the EC50 was 36.5 nM.

Compound `Cc1cc(NC(=O)c2ccc3c(c2)nc(CN2CC=C(c4cccc(OCc5ccc(Cl)cc5F)n4)CC2)n3C[C@@H]2CCO2)cc2nn[nH]c12` [Compound 167] gave an EC50 of 0.68 nM.

As to `Cc1n[nH]c2c(C(F)F)cc(NC(=O)c3ccc4c(c3)nc(CN3CC=C(c5cccc(OCc6ccc(Cl)c7cc(Cl)oc67)n5)CC3)n4C[C@@H]3CCO3)cc12` [Compound 352], the EC50 stood at 1.03 nM.

`COCCn1c(CN2CCC(c3cccc(OCc4ccc(Cl)cc4F)n3)CC2)nc2cc(C(=O)NCc3ccc(O)nc3)ccc21` [Compound 34]: the EC50 stood at 90.1 nM.

Consider `COCCn1c(Cc2ccc(-c3cccc(OCc4ccc(C#N)cc4F)n3)cc2)nc2cc(C(=O)NCC(O)c3ccc(O)cc3)ccc21` (stereo not shown) [Compound 11], for which the EC50 stood at 567 nM.

`COCCn1c(CN2CCC(c3cccc(OCc4ccc(Cl)cc4F)n3)CC2)nc2cc(C(=O)NCC(=O)c3ccc(O)c(O)c3)ccc21` [Compound 42]: the EC50 was over 10000 nM.

As to `Cc1cc2c(C#N)ccc(COc3cccc(C4=CCN(Cc5nc6cc(C(=O)Nc7ccc8[nH]nc(C(F)(F)F)c8c7)ccc6n5C[C@@H]5CCO5)CC4)n3)c2o1` [Compound 356], a half-maximal effect (EC50) was put at 2.21 nM.

For `COCCn1c(CN2CCC(c3cccc(OCc4ccc(Cl)cc4F)n3)CC2)nc2cc(C(=O)NCCc3ccc(C(F)(F)F)cc3)ccc21` [Compound 23], the EC50 is over 10000 nM.

Consider `O=C(NCC(=O)N1CC(F)(F)C[C@H]1C(=O)O)c1ccc2c(c1)nc(CN1CC=C(c3cccc(OCc4ccc(Cl)cc4F)n3)CC1)n2C[C@@H]1CCO1` [Compound 72], for which the EC50 stood at 0.61 nM.

Turning to `Cc1n[nH]c2c(C(F)(F)F)cc(NC(=O)c3ccc4c(c3)nc(CN3CC=C(c5cccc(OCc6ccc(Cl)cc6F)n5)CC3)n4C[C@@H]3CCO3)cc12` [Compound 156], the response was half-maximal at 0.68 nM (EC50).

In the case of `Cc1n[nH]c2c(C)cc(NC(=O)c3ccc4c(c3)nc(CN3CC=C(c5cccc6c5OC(C)(c5ccc(C#N)cc5F)O6)CC3)n4CC3CCO3)cc12` (stereo not shown) [Compound 299], it took 0.16 nM to reach a half-maximal effect (EC50).

`COc1n[nH]c2ccc(NC(=O)c3ccc4c(c3)nc(CN3CC=C(c5cccc(OCc6ccc(Cl)cc6F)n5)CC3)n4C[C@@H]3CCO3)cc12` [Compound 138]: the EC50 stood at 8.92 nM.

As to `Cc1n[nH]c2ccc(C(=O)Nc3ccc4c(c3)nc(Cc3cc(F)c(-c5cccc6c5OC(C)(c5ccc(Cl)cc5F)O6)cc3F)n4CC3CCO3)cc12` (stereo not shown) [Compound 318], a half-maximal effect (EC50) was put at 1.53 nM.

In the case of `Cc1cc(NC(=O)c2ccc3c(c2)nc(CN2CCC(c4cccc(OCc5ccc(Cl)cc5F)n4)CC2)n3C[C@@H]2CCO2)c(F)c2c(C)n[nH]c12` [Compound 121], the 50% effective concentration (EC50) turned out to be 4.23 nM.

As for `O=C(Nc1cc2[nH]ccc2s1)c1ccc2c(c1)nc(CN1CC=C(c3cccc(OCc4ccc(Cl)cc4F)n3)CC1)n2C[C@@H]1CCO1` [Compound 402], the EC50 was found to be 73.2 nM.

In turn, `CCn1cncc1Cn1c(Cc2c(F)cc(-c3cccc4c3O[C@](C)(c3ccc(Cl)cn3)O4)cc2F)nc2cc(NC(=O)c3cc(F)c4[nH]nc(C)c4c3)ccc21` [Compound 412] came in with an EC50 of 3.1 nM.

Take `O=C(NCCc1ccc(O)cc1)c1ccc2c(c1)nc(CN1CCC(c3cccc(OCc4ccc(Cl)cc4F)n3)CC1)n2C[C@@H]1CCO1` [Compound 15]: the EC50 was 25.6 nM.

As to `CC1(c2ccc(C#N)cc2F)Oc2cccc(C3=CCN(Cc4nc5cc(NC(=O)c6ccc7[nH]nc(C8CC8)c7c6)ccc5n4CC4CCO4)CC3)c2O1` (stereo not shown) [Compound 312], the response was half-maximal at 0.99 nM (EC50).

Take `Cc1n[nH]c2c(F)cc(C(=O)Nc3ccc4nc(CN5CC=C(c6cccc(OCc7ccc(C#N)cc7F)n6)CC5)n(CC5CCO5)c4c3)cc12` (stereo not shown) [Compound 289]: the EC50 was 0.99 nM.

Take `O=C(Nc1cc2[nH]c(=O)[nH]c2cc1F)c1ccc2c(c1)nc(CN1CCC(c3cccc(OCc4ccc(Cl)cc4F)n3)CC1)n2C[C@@H]1CCO1` [Compound 92]: a half-maximal response (EC50) required 18.6 nM.

In turn, `CCn1cncc1Cn1c(CN2CC=C(c3cccc4c3OC(C)(c3ccc(Cl)cn3)O4)CC2)nc2cc(NC(=O)c3cc(F)c4[nH]nc(C)c4c3)ccc21` (stereo not shown) [Compound 410] yielded an EC50 of 0.31 nM.

Compound `O=C(Nc1ccc2[nH]ncc2c1)c1ccc2c(c1)nc(CN1CC=C(c3cccc(OCc4ccc(Cl)cc4F)n3)CC1)n2C[C@@H]1CCO1` [Compound 141] yielded an EC50 of 3.29 nM.

The compound `Cc1n[nH]c2ccc(NC(=O)c3ccc4c(c3)nc(CN3CCC(c5cccc(OCc6ccc(Cl)cc6F)n5)CC3)n4C[C@@H]3CCO3)c(F)c12` [Compound 122] displayed an EC50 of 3.21 nM.

`Cc1n[nH]c2ccc(NC(=O)c3ccc4c(c3)nc(CN3CC=C(c5cccc(OCc6ccc(Cl)cc6F)n5)CC3)n4C[C@@H]3CCO3)c(F)c12` [Compound 176]: the EC50 stood at 0.87 nM.

`C[C@@H](NC(=O)c1ccc2c(c1)nc(CN1CCC(c3cccc(OCc4ccc(Cl)cc4F)n3)CC1)n2C[C@@H]1CCO1)C(=O)N1C[C@@H](O)C[C@@H]1C(=O)O` [Compound 65] registered an EC50 of 1.75 nM.

`O=C(N[C@@H](Cc1cnc[nH]1)C(=O)O)c1ccc2c(c1)nc(CN1CCC(c3cccc(OCc4ccc(Cl)cc4F)n3)CC1)n2C[C@@H]1CCO1` [Compound 53]: the EC50 was 114 nM.

`CC(C)c1n[nH]c2ccc(C(=O)Nc3ccc4c(c3)nc(C3CC35CCC(c3cccc(OCc6ccc(Cl)cc6F)n3)CC5)n4CC3CCO3)cc12` (stereo not shown) [Compound 251] returned an EC50 of 2.22 nM.

In turn, `COC(=O)[C@@H]1CC(F)(F)CN1C(=O)[C@H](C)NC(=O)c1ccc2c(c1)nc(CN1CCC(c3cccc(OCc4ccc(Cl)cc4F)n3)CC1)n2C[C@@H]1CCO1` [Compound 68] had an EC50 of 142 nM.

As for `Cc1cc(NC(=O)c2ccc3c(c2)nc(CN2CCC(c4cccc(OCc5ccc(C#N)cc5F)n4)CC2)n3C[C@@H]2CCO2)cc2c1NC(=O)C21CC1` [Compound 124], the EC50 is 0.17 nM.

Compound `Cc1cc(C(=O)Nc2ccc3c(c2)nc(CN2CC=C(c4cccc(OCc5ccc(C#N)cc5F)n4)CC2)n3C[C@@H]2CCO2)cc2c(C3CC3)n[nH]c12` [Compound 233] returned an EC50 of 0.92 nM.

`COC(=O)[C@@H]1C[C@H](O)CN1C(=O)CNC(=O)c1ccc2c(c1)nc(CN1CCC(c3cccc(OCc4ccc(C#N)cc4F)n3)CC1)n2C[C@@H]1CCO1` [Compound 47] returned an EC50 of 9.6 nM.

`Cc1n[nH]c2c(F)cc(C(=O)Nc3ccc4c(c3)nc(CN3CC=C(c5cccc6c5OC(C)(c5ccc(Cl)cc5F)O6)CC3)n4CC3CCO3)cc12` (stereo not shown) [Compound 304]: a half-maximal effect (EC50) was put at 0.18 nM.

Consider `O=C(Nc1ccc2c(c1)nc(C1CC13CCN(c1cccc(OCc4ccc(Cl)cc4F)n1)CC3)n2C[C@@H]1CCO1)c1cc(F)c2c(c1)C1(CC1)C(=O)N2` (stereo partly shown) [Compound 254], for which a half-maximal effect (EC50) was put at 1.92 nM.

Regarding `Cc1n[nH]c2c(C3CC3)cc(NC(=O)c3ccc4c(c3)nc(CN3CC=C(c5cccc(OCc6ccc(Cl)cc6F)n5)CC3)n4C[C@@H]3CCO3)cc12` [Compound 171], a half-maximal effect (EC50) was put at 9.53 nM.

Turning to `Cc1n[nH]c2ccc(NC(=O)c3ccc4c(c3)nc(CN3CCC(c5cccc(OCc6ccc(C#N)cc6F)n5)CC3)n4C[C@@H]3CCO3)cc12` [Compound 133], the EC50 worked out at 0.38 nM.

Compound `C=C(C)c1n[nH]c2ccc(C(=O)Nc3ccc4c(c3)nc(C3CC35CCN(c3cccc(OCc6ccc(Cl)cc6F)n3)CC5)n4CC3CCO3)cc12` (stereo not shown) [Compound 243] returned an EC50 of 0.48 nM.

The compound `CCn1cncc1Cn1c(CN2CCC(c3cccc(OCc4ccc(Cl)cc4F)n3)CC2)nc2cc(NC(=O)c3cc(F)c4[nH]nc(C)c4c3)ccc21` [Compound 259] registered an EC50 of 0.91 nM.

The compound `O=C(Nc1ccc2c(c1)nc(CN1CC=C(c3cccc(OCc4ccc(Cl)cc4F)n3)CC1)n2C[C@@H]1CCO1)c1ccc2[nH]nc(C(F)(F)F)c2c1` [Compound 215] showed an EC50 of 2.11 nM.

In the case of `Cc1n[nH]c2cnc(C(=O)Nc3ccc4c(c3)nc(CN3CC=C(c5cccc(OCc6ccc(Cl)cc6F)n5)CC3)n4C[C@@H]3CCO3)nc12` [Compound 240], the EC50 turned out to be 20.7 nM.

In turn, `O=C(Nc1ccc2nc(CN3CC=C(c4cccc(OCc5ccc(Cl)cc5F)n4)CC3)n(CC3CCO3)c2c1)c1ccc2[nH]nc(F)c2c1` (stereo not shown) [Compound 280] registered an EC50 of 21 nM.

`COCCn1c(CN2CCC(c3cccc(OCc4ccc(Cl)cc4F)n3)CC2)nc2cc(C(=O)NCCc3c[nH]c4ccc(O)cc34)ccc21` [Compound 17] came in with an EC50 of 404 nM.

`Cc1cc2c(C#N)ccc(COc3cccc(C4CCN(Cc5nc6cc(NC(=O)c7ccc8[nH]nc(C)c8c7)ccc6n5C[C@@H]5CCO5)CC4)n3)c2o1` [Compound 370]: the EC50 stood at 5.12 nM.

As for `C[C@H](NC(=O)c1ccc2c(c1)nc(CN1CCC(c3cccc(OCc4ccc(Cl)cc4F)n3)CC1)n2C[C@@H]1CCO1)C(=O)N1C[C@H](O)C[C@H]1C(=O)O` [Compound 57], it took 1.41 nM to reach a half-maximal effect (EC50).

In turn, `O=C(Nc1ccc2[nH]nc(F)c2c1)c1ccc2c(c1)nc(CN1CC=C(c3cccc(OCc4ccc(Cl)cc4F)n3)CC1)n2C[C@@H]1CCO1` [Compound 139] gave an EC50 of 15.2 nM.

`Cc1cc(NC(=O)c2ccc3c(c2)nc(CN2CC=C(c4cccc(OCc5ccc(Cl)cc5F)n4)CC2)n3C[C@@H]2CCO2)c(F)c2c(C)n[nH]c12` [Compound 175] showed an EC50 of 1.23 nM.

In turn, `COC(=O)[C@@H]1C[C@H](O)CN1C(=O)CNC(=O)c1ccc2c(c1)nc(CN1CCC(c3cccc(OCc4ccc(Cl)cc4F)n3)CC1)n2C[C@@H]1CCO1` [Compound 63] had an EC50 of 0.49 nM.

On to `Cc1cc2cc(C(=O)Nc3ccc4c(c3)nc(CN3CC=C(c5cccc(OCc6ccc(Cl)cc6F)n5)CC3)n4C[C@@H]3CCO3)ccc2[nH]1` [Compound 394], for which a half-maximal response (EC50) required 21.1 nM.

The compound `Cc1n[nH]c2c(Cl)cc(C(=O)Nc3ccc4c(c3)nc(Cc3cc(F)c(-c5cccc6c5OC(C)(c5ccc(Cl)cc5F)O6)cc3F)n4CC3CCO3)cc12` (stereo not shown) [Compound 320] displayed an EC50 of 13.7 nM.
